The test system of the test is mice. The test can be described thus: Anesthetic activity: inhalation exposure of mice in a microcircuit, loss-of-righting-reflex (LORR). The format is in vivo. To be noted: inhalation exposure to vaporized compound/air mixture circulated through microcircuit, dose not quantified. As for the experimental part:
A sample of the product mixture formed in Step 4 of the synthesis of Example 1, comprising both cis- and trans-isomers of TTD (the “TTD mixture”), was administered to mice via inhalation exposure in a microcircuit connected using unidirectional airflow valves to a CO2 absorbent chamber and a glass syringe. A small amount of liquid TTD mixture was transferred into the glass syringe where it volatilized. Mice were transferred to the small cylindrical chamber, and the glass syringe was connected to the microcircuit in series. […] Delivery of TTD mixture was discontinued, and the mice were allowed to recover.
Separately, the trans-isomer of TTD isolated in step 5 of Example 1 above was administered to mice via inhalation exposure in a microcircuit connected using unidirectional airflow valves to a CO2 absorbent chamber and a glass syringe. A small amount of the TTD was transferred into the glass syringe where it volatilized. Mice were transferred to the small cylindrical chamber, and the glass syringe was connected to the microcircuit in series. […] Delivery of the TTD was discontinued, and the mice were allowed to recover.

In the case of `FC1OC(F)(C(F)(F)F)OC1F` (centres unmarked) [TTD mixture, 2,4,5-trifluoro-2-(trifluoromethyl)-1,3-dioxolane], the “loss-of-righting-reflex (LORR) / anesthetic activity” value is reported as “indicated a loss-of-righting-reflex (LORR)”.
Under `F[C@@H]1OC(F)(C(F)(F)F)O[C@H]1F` (relative stereo) [trans-isomer of TTD, trans-2,4,5-trifluoro-2-trifluoromethyl-1,3-dioxolane] stands “indicated a loss-of-righting-reflex (LORR)”.

Values taken from patent US20250340525A1, “F[…] COMPOUND” ([…], INC., priority 2022, published 2025).
